Test results from patent US20210161174A1, “FEED ADDITIVE FOR FARMED ANIMALS” (ADISSEO FRANCE S.A.S., priority 2018, published 2021).
Marks after values point to notes of the source that are not given here.

Legend:
[1] = Example 1: broiler performance (body weight, gain, feed intake, FCR), PQQ in diet, 0 to 49 days; assay type: in vivo, Broiler Chicken (Ross 708)
Description: Study Animals: • Animal: Broiler Chicken • Breed/Strain: Ross 708 • Description: Day-of-hatch male chicks, sexed at hatchery • Sex: Male Total number of treatments: 4 Total number of replicates per treatment: 12 Total number of chicks per replicate: 40 Initial age: day-of-hatch: 0 days-of-age Final age: 7 weeks: 49 days-of-age. Feed will be changed based on the days of each phase. • Starter feed will be weighed out and fed from day 0 to 14. On day 14, non-consumed starter feed will be weighed by pen and discarded. • Grower feed will be weighed, issued and fed from day 14 until 28. On day 28, non-consumed grower feed will be weighed by pen and discarded. • Finisher feed will be weighed, issued and fed from day 28 until 42. On day 42, non-consumed finisher feed will be weighed by pen and discarded. • Withdraw feed will be weighed, issued and fed from day 42 until 49. On day 49, non-consumed finisher feed will be weighed by pen and discarded. Performance: Feed consumption and pen weights are determined on days 0, 14, 21, 28, 35, 42 and 49 to calculate average body weight (BW), body weight gain (BWG) and feed conversion ratio (FCR). Final bird weights: At the end of the grow-out period (Day 49), all birds are weighed, as well as any and all remaining feed. Randomized Complete Block Design with 4 treatments×12 replicates/treatment (40 birds/pen), randomized within blocks across the barn to minimize differences in environmental condition. The pen is the experimental unit. Dietary Treatments • Control (NC, negative control without PQQ) • 0.5 ppm PQQ • 1 ppm PQQ • 2 ppm PQQ The results are presented in the following tables 1-4 for broilers fed diets from the first week to the seventh week (corresponding to 0 to 49 days of age). The values are means and SD is standard variation. The feed conversion ratio is the ratio between feed intake and body weight gain.

[2] = Example 2: carcass, abdominal fat and yields of commercial cuts at 42 d; assay type: in vivo, Broiler Chicken (Cobb 500); conditions: for Abdominal fat yield / Breast fillets yield / Breast tenders yield / Drumsticks yield / Thighs yield / Wings yield: proportion of the carcass
Description: Study Animals: • Animal: Broiler Chicken • Breed/Strain: Cobb 500 • Description: Day-of-hatch male chicks, sexed at hatchery • Sex: Male
Processing: On day […] (12) birds are selected from each pen for processing (at 12 reps/trt: 576 birds in total; 144 birds/trt)
Dietary Treatments • Control (NC, negative control without PQQ) • 0.2 ppm PQQ • 0.5 ppm PQQ • 1 ppm PQQ

O=C(O)c1cc(C(=O)O)c2c(n1)C(=O)C(=O)c1cc(C(=O)O)[nH]c1-2 [PQQ, pyrroloquinoline quinone]
body weight ([1]; 0.5 ppm PQQ, wk 1): 0.139 kg | feed conversion ratio (FCR) ([1]; 0.5 ppm PQQ, wk 1): 1.491 | feed intake ([1]; 0.5 ppm PQQ, wk 1): 0.142 kg | weekly body weight gain ([1]; 0.5 ppm PQQ, wk 1): 0.095 kg | body weight ([1]; 0.5 ppm PQQ, wk 2): 0.355 kg | feed conversion ratio (FCR) ([1]; 0.5 ppm PQQ, wk 2): 1.400 | feed intake ([1]; 0.5 ppm PQQ, wk 2): 0.299 kg | weekly body weight gain ([1]; 0.5 ppm PQQ, wk 2): 0.215 kg | body weight ([1]; 0.5 ppm PQQ, wk 3): 0.763 kg | feed conversion ratio (FCR) ([1]; 0.5 ppm PQQ, wk 3): 1.623 | feed intake ([1]; 0.5 ppm PQQ, wk 3): 0.671 kg | weekly body weight gain ([1]; 0.5 ppm PQQ, wk 3): 0.414 kg | body weight ([1]; 0.5 ppm PQQ, wk 4): 1.286 kg | feed conversion ratio (FCR) ([1]; 0.5 ppm PQQ, wk 4): 1.435 | feed intake ([1]; 0.5 ppm PQQ, wk 4): 0.796 kg | weekly body weight gain ([1]; 0.5 ppm PQQ, wk 4): 0.556 kg | body weight ([1]; 0.5 ppm PQQ, wk 5): 2.042 kg | feed conversion ratio (FCR) ([1]; 0.5 ppm PQQ, wk 5): 1.617 | feed intake ([1]; 0.5 ppm PQQ, wk 5): 1.139 kg | weekly body weight gain ([1]; 0.5 ppm PQQ, wk 5): 0.688 kg | body weight ([1]; 0.5 ppm PQQ, wk 6): 2.808 kg | feed conversion ratio (FCR) ([1]; 0.5 ppm PQQ, wk 6): 1.755 | feed intake ([1]; 0.5 ppm PQQ, wk 6): 1.346 kg | weekly body weight gain ([1]; 0.5 ppm PQQ, wk 6): 0.767 kg | body weight ([1]; 0.5 ppm PQQ, wk 7): 3.416 kg | feed conversion ratio (FCR) ([1]; 0.5 ppm PQQ, wk 7): 1.603 | feed intake ([1]; 0.5 ppm PQQ, wk 7): 0.986 kg | weekly body weight gain ([1]; 0.5 ppm PQQ, wk 7): 0.622 kg | influence on the body weight ([1]; 0.5 ppm, as from the second week): positive influence | body weight ([1]; 1.0 ppm PQQ, wk 1): 0.145 kg | feed conversion ratio (FCR) ([1]; 1.0 ppm PQQ, wk 1): 1.514 | feed intake ([1]; 1.0 ppm PQQ, wk 1): 0.151 kg | weekly body weight gain ([1]; 1.0 ppm PQQ, wk 1): 0.100 kg | body weight ([1]; 1.0 ppm PQQ, wk 2): 0.371 kg | feed conversion ratio (FCR) ([1]; 1.0 ppm PQQ, wk 2): 1.418 | feed intake ([1]; 1.0 ppm PQQ, wk 2): 0.315 kg | weekly body weight gain ([1]; 1.0 ppm PQQ, wk 2): 0.225 kg | body weight ([1]; 1.0 ppm PQQ, wk 3): 0.790 kg | feed conversion ratio (FCR) ([1]; 1.0 ppm PQQ, wk 3): 1.619 | feed intake ([1]; 1.0 ppm PQQ, wk 3): 0.678 kg | weekly body weight gain ([1]; 1.0 ppm PQQ, wk 3): 0.419 kg | body weight ([1]; 1.0 ppm PQQ, wk 4): 1.329 kg | feed conversion ratio (FCR) ([1]; 1.0 ppm PQQ, wk 4): 1.427 | feed intake ([1]; 1.0 ppm PQQ, wk 4): 0.816 kg | weekly body weight gain ([1]; 1.0 ppm PQQ, wk 4): 0.573 kg | body weight ([1]; 1.0 ppm PQQ, wk 5): 2.112 kg | feed conversion ratio (FCR) ([1]; 1.0 ppm PQQ, wk 5): 1.608 | feed intake ([1]; 1.0 ppm PQQ, wk 5): 1.161 kg | weekly body weight gain ([1]; 1.0 ppm PQQ, wk 5): 0.723 kg | body weight ([1]; 1.0 ppm PQQ, wk 6): 2.927 kg | feed conversion ratio (FCR) ([1]; 1.0 ppm PQQ, wk 6): 1.741 | feed intake ([1]; 1.0 ppm PQQ, wk 6): 1.370 kg | weekly body weight gain ([1]; 1.0 ppm PQQ, wk 6): 0.787 kg | body weight ([1]; 1.0 ppm PQQ, wk 7): 3.612 kg | feed conversion ratio (FCR) ([1]; 1.0 ppm PQQ, wk 7): 1.616 | feed intake ([1]; 1.0 ppm PQQ, wk 7): 1.106 kg | weekly body weight gain ([1]; 1.0 ppm PQQ, wk 7): 0.686 kg | influence on the body weight ([1]; 1 ppm and 2 ppm, as from the first week up to the end of the assay): positive influence | body weight ([1]; 2.0 ppm PQQ, wk 1): 0.146 kg | feed conversion ratio (FCR) ([1]; 2.0 ppm PQQ, wk 1): 1.406 | feed intake ([1]; 2.0 ppm PQQ, wk 1): 0.142 kg | weekly body weight gain ([1]; 2.0 ppm PQQ, wk 1): 0.102 kg | body weight ([1]; 2.0 ppm PQQ, wk 2): 0.373 kg | feed conversion ratio (FCR) ([1]; 2.0 ppm PQQ, wk 2): 1.414 | feed intake ([1]; 2.0 ppm PQQ, wk 2): 0.315 kg | weekly body weight gain ([1]; 2.0 ppm PQQ, wk 2): 0.224 kg | body weight ([1]; 2.0 ppm PQQ, wk 3): 0.794 kg | feed conversion ratio (FCR) ([1]; 2.0 ppm PQQ, wk 3): 1.608 | feed intake ([1]; 2.0 ppm PQQ, wk 3): 0.645 kg | weekly body weight gain ([1]; 2.0 ppm PQQ, wk 3): 0.425 kg | body weight ([1]; 2.0 ppm PQQ, wk 4): 1.331 kg | feed conversion ratio (FCR) ([1]; 2.0 ppm PQQ, wk 4): 1.469 | feed intake ([1]; 2.0 ppm PQQ, wk 4): 0.813 kg | weekly body weight gain ([1]; 2.0 ppm PQQ, wk 4): 0.548 kg | body weight ([1]; 2.0 ppm PQQ, wk 5): 2.065 kg | feed conversion ratio (FCR) ([1]; 2.0 ppm PQQ, wk 5): 1.605 | feed intake ([1]; 2.0 ppm PQQ, wk 5): 1.141 kg | weekly body weight gain ([1]; 2.0 ppm PQQ, wk 5): 0.727 kg | body weight ([1]; 2.0 ppm PQQ, wk 6): 2.835 kg | feed conversion ratio (FCR) ([1]; 2.0 ppm PQQ, wk 6): 1.741 | feed intake ([1]; 2.0 ppm PQQ, wk 6): 1.336 kg | weekly body weight gain ([1]; 2.0 ppm PQQ, wk 6): 0.77 kg | body weight ([1]; 2.0 ppm PQQ, wk 7): 3.472 kg | feed conversion ratio (FCR) ([1]; 2.0 ppm PQQ, wk 7): 1.615 | feed intake ([1]; 2.0 ppm PQQ, wk 7): 1.041 kg | weekly body weight gain ([1]; 2.0 ppm PQQ, wk 7): 0.648 kg | influence on the feed intake ([1]; as from a concentration of 1 ppm): has an influence on the feed intake | Abdominal fat weight ([2]; 0.2 ppm PQQ): 26 g | Breast fillets weight ([2]; 0.2 ppm PQQ): 680 g | Breast tenders weight ([2]; 0.2 ppm PQQ): 127ab g | Carcass yield (eviscerated carcass as a percentage of body weight) ([2]; 0.2 ppm PQQ): 80.3^b % | Drumsticks weight ([2]; 0.2 ppm PQQ): 467 g | Thighs weight ([2]; 0.2 ppm PQQ): 364 g | Wings weight ([2]; 0.2 ppm PQQ): 258 g | Abdominal fat yield ([2]; 0.2 ppm PQQ): 1.05% | Breast fillets yield ([2]; 0.2 ppm PQQ): 26.8% | Breast tenders yield ([2]; 0.2 ppm PQQ): 5.03^b % | Drumsticks yield ([2]; 0.2 ppm PQQ): 18.42^b % | Thighs yield ([2]; 0.2 ppm PQQ): 14.36^ab % | Wings yield ([2]; 0.2 ppm PQQ): 10.19^ab % | Abdominal fat weight ([2]; 0.5 ppm PQQ): 28 g | Breast fillets weight ([2]; 0.5 ppm PQQ): 677 g | Breast tenders weight ([2]; 0.5 ppm PQQ): 129ab g | Carcass yield (eviscerated carcass as a percentage of body weight) ([2]; 0.5 ppm PQQ): 80.4^b % | Drumsticks weight ([2]; 0.5 ppm PQQ): 473 g | Thighs weight ([2]; 0.5 ppm PQQ): 378 g | Wings weight ([2]; 0.5 ppm PQQ): 258 g | Abdominal fat yield ([2]; 0.5 ppm PQQ): 1.11% | Breast fillets yield ([2]; 0.5 ppm PQQ): 26.8% | Breast tenders yield ([2]; 0.5 ppm PQQ): 5.12^ab % | Drumsticks yield ([2]; 0.5 ppm PQQ): 18.73^ab % | Thighs yield ([2]; 0.5 ppm PQQ): 15.01^a % | Wings yield ([2]; 0.5 ppm PQQ): 10.42^a % | Abdominal fat weight ([2]; 1.0 ppm PQQ): 23 g | Breast fillets weight ([2]; 1.0 ppm PQQ): 702 g | Breast tenders weight ([2]; 1.0 ppm PQQ): 134a g | Carcass yield (eviscerated carcass as a percentage of body weight) ([2]; 1.0 ppm PQQ): 80.3^b % | Drumsticks weight ([2]; 1.0 ppm PQQ): 486 g | Thighs weight ([2]; 1.0 ppm PQQ): 366 g | Wings weight ([2]; 1.0 ppm PQQ): 259 g | Abdominal fat yield ([2]; 1.0 ppm PQQ): 0.90% | Breast fillets yield ([2]; 1.0 ppm PQQ): 27.4% | Breast tenders yield ([2]; 1.0 ppm PQQ): 5.22^a % | Drumsticks yield ([2]; 1.0 ppm PQQ): 18.89^a % | Thighs yield ([2]; 1.0 ppm PQQ): 14.24^b % | Wings yield ([2]; 1.0 ppm PQQ): 10.05^ab %
